This passage reports Ki results from ChEMBL document CHEMBL1132991, “Conformational selection of inhibitors and substrates by proteolytic enzymes: implications for drug design and polypeptide processing” (J Med Chem, 2000).

SMILES strings stand for the structures.

For the assay, the target named is Human immunodeficiency virus type 1 protease (Human immunodeficiency virus 1, UniProt Q72874). Description: binding affinity towards HIV-1 Protease enzyme.
A word on the Ki: it is the equilibrium dissociation constant of an inhibitor or competing ligand from its target. As to `CC[C@H](C)[C@@H]1NC(=O)[C@@H](NC(=O)[C@@H]2Cc3ccc(cc3)OCCCCC(=O)N[C@@H](C(C)C)C(=O)N2)Cc2ccc(cc2)OCCCNC1=O`, affinity was put at a Ki of 800 nM. The molecule `CC[C@H](C)[C@@H]1NC(=O)[C@@H](C(N)C[C@@H](O)C(Cc2ccccc2)NC(=O)OC(C)(C)C)Cc2ccc(cc2)OCCCNC1=O` (stereo partly drawn) registered an inhibition constant Ki of 4 nM. For `CC[C@@H](C)[C@H](NC(=O)[C@H](Cc1ccccc1)NC(=O)[C@H](Cc1ccccc1)NC(=O)[C@@H](NC(=O)[C@H](CC(C)C)NC(C)=O)C(C)C)C(=O)N[C@H](C(N)=O)C(C)C`, the Ki came to 60000 nM.

`CC[C@H](C)[C@@H]1NC(=O)[C@@H](C(N)C[C@@H](O)[C@@H]2Cc3ccc(cc3)OCCCCC(=O)N[C@@H](C(C)C)C(=O)N2)Cc2ccc(cc2)OCCCNC1=O` (stereo partly drawn) displayed a Ki of 3 nM. Molecule `CC(C)C[C@H](CC(=O)NO)C(=O)N[C@H]1Cc2cn(c3ccccc23)CCCCCCNC1=O` came in with a Ki of 1 nM. The molecule `CC[C@H](C)[C@H](NC(=O)[C@H](Cc1ccccc1)NC[C@H](O)[C@@H]1Cc2ccc(cc2)OCCCC(=O)N[C@@H](CC(N)=O)C(=O)N1)C(=O)N[C@H](C(N)=O)C(C)C` displayed an inhibitory constant (Ki) of 12 nM.

Consider `N=C(N)NCCC[C@H]1NC(=O)[C@@H]2CCCN2C(=O)[C@@H](NC=O)CNC(=O)/C=C/C(Cc2ccc(O)cc2)NC(=O)[C@@H](Cc2ccccc2)NC(=O)C1=O` (stereo partly drawn), for which affinity was put at a Ki of 10 nM. Then `CC(C)C[C@@H](NC(=O)[C@H](O)COS(=O)(=O)O)C(=O)N[C@@H]1C(=O)N[C@@H](CCCNC(=N)N)C(=O)N[C@H]2CC[C@H](O)N(C2=O)[C@@H](CC(C)C)C(=O)N(C)[C@H](Cc2ccc(O)cc2)C(=O)N[C@H](C(C)C)C(=O)O[C@@H]1C` [PROTEOLYTIC ENZYME INHIBITOR], with 1 nM.
